Here are results for 1 compound from ChEMBL document CHEMBL3792364, “Identification and biological activity of 6-alkyl-substituted 3-methyl-pyridine-2-carbonyl amino dimethyl-benzoic acid EP4 antagonists” (Bioorg Med Chem Lett, 2016).

pIC50: −log10 of the molar value.

The assay has as its target Prostaglandin E2 receptor EP4 subtype (Homo sapiens, UniProt P35408). As to the kind of experiment: Antagonist activity against human EP4 expressed in HEK293 cells assessed as inhibition of PGE2-stimulated production of cAMP incubated for 20 mins by HTRF assay. Type of assay: functional, cell-based.

Sequence of Prostaglandin E2 receptor EP4 subtype (P35408 whole entry): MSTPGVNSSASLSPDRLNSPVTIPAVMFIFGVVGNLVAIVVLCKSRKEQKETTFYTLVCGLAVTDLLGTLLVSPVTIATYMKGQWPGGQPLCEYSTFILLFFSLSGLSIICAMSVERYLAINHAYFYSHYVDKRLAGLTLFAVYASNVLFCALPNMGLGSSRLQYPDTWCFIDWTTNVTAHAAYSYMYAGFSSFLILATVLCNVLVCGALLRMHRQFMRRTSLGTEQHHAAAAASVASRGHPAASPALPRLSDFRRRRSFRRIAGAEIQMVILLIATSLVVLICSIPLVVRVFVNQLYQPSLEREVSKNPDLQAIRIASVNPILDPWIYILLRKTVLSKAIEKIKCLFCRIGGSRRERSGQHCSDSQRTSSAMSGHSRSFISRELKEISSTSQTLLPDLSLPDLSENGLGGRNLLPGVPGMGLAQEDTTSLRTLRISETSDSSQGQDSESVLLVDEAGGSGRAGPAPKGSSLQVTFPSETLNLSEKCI

For `COC1CCN(c2ccc(C)c(C(=O)Nc3c(C)cc(C(=O)O)cc3C)n2)CC1`, the pIC50 is 7.01.
